Test results from patent US8680157B2, “Androgen receptor-dependent gene expression control” (Universitaetsklinikum Freiburg, priority 2005, dated 2014).

Key:
[1] = tested on: LSD1-induced activation of AR; assay: Transient transfection, AR-dependent luciferase reporter with co-expressed LSD1 and AR in 293 cells; format: cell-based; details: R1881, 3×10^−3 M pargyline, 1×10^−3 M deprenyl or 1×10^−4 M chlorgyline, 18 hours, FIG. 4e
Method: 293 and CV-1 cells were cultured and transfected as described^13. LNCaP cells were cultured in phenol-red-free RPMI1640 supplemented with 10% double-stripped fetal calf serum (dsFCS) and transfected with Effectene (Qiagen). The following amounts per well were used: MMTV-LUC, ARE2x-TATA-LUC, ARE2x-TK-LUC, TK-LUC, PSA-LUC, Slp-ARU-TATA-LUC 500 ng each, 25 ng expression plasmids for AR; 500 ng expression plasmids for LSD1 1-174, LSD1 175-246, LSD1 247-852, pSUPER-control, and pSUPER-LSD1; 100 to 500 ng expression plasmids for LSD1 were transfected per well. […] Luciferase activity was assayed as described^14. All experiments were repeated at least five times in duplicate.

LSD1 = molecular target: T1, LSD1 (Homo sapiens, UniProt O60341); assay: Chromatin immunoprecipitation (ChIP) at the PSA promoter in LNCaP cells; format: cell-based
T1 construct: endogenous in cells; host or cells: LNCaP
Method: ChIP experiments were performed essentially as described^15. […] LNCaP cells were transfected three days before harvesting for ChIP with or without siRNA (Qiagen) following the manufacture's instructions. Immunoprecipitation was performed with specific antibodies (α-monoMeK9H3, α-diMeK9H3, α-triMeK9H3, α-monoMeK4H3, α-diMeK4H3, α-triMeK4H3, α-H3 (abcam), α-LSD1, and α-AR PG21 (Upstate Biotechnology) on GammaBind™-Sepharose 4B (GE-Healthcare). For PCR, 1-5 μl out of 50 μl DNA extract was used. For Re-ChIP assays, immunoprecipitations were sequentially washed with TSE I, TSE II, buffer III, and TE^15. Complexes were eluted by incubation with 10 mM DTT at 37° C. for 30 min, diluted 50 times with dilution buffer^15 followed by a second immunoprecipitation with the indicated antibody. Primer sequences were as follows: middle; PSA (−2223/−1951) 5′-[…]-3′ and 5′-[…]-3′; PCR primers for ARE I+II (PSA (−459/−121)) and ARE III (PSA (−4288/−3922)) have been described previously^16.

[2] = pargyline, R1881, FIG. 3d and data not shown

| Compound | LSD1-induced ligand-dependent activation of AR (reporter activity) [1] | demethylation of mono- and dimethyl H3-K9 during androgen-induced transcription (LSD1; PSA promoter, pargyline 18 hours, 10^−8 M R1881 210 min, FIG. 3d) | methylation levels of trimethyl H3-K9 (LSD1; PSA promoter, pargyline 18 hours, R1881, FIG. 3d) | methylation status of H3-K27 (LSD1; [2]) | methylation status of H4-K20 (LSD1; [2]) |
| --- | --- | --- | --- | --- | --- |
| C#CCN(C)CCCOc1ccc(Cl)cc1Cl [clorgyline, N-methyl-N-propargyl-3-(2,4-dichlorophenoxy-)propylamine] | severely impair |  |  |  |  |
| C#CCN(C)[C@H](C)Cc1ccccc1 [deprenyl, (R)-(−)-N,2-dimethyl-N-2-propynylphenethylamine] | severely impair |  |  |  |  |
| C#CCN(C)Cc1ccccc1 [pargyline, N-methyl-N-2-propynyl-benzylamine] | severely impair | blocks | remains unchanged | remains unchanged | remains unchanged |
